In article PMC8227162 (Molecules, 2021):
Entries after “also recorded” stand apart in the source; their conditions may differ. Counter-ions that a name gives are not always drawn.

Tests used:
[1] = test system: MDA-MB-231 cells; assay: SRB cytotoxicity assay, MDA-MB-231 cells; type: cell-based; conditions: Homo sapiens, 48 h incubation (Figure 3 legend: 72 h)
Protocol: (§1) MDA-MB-231, MDA-MB-468, 4T1, and MCF7 cell lines were purchased from American Type Culture Collection (ATCC) (Manassas, VA, USA). RPMI medium supplemented with 5% fetal bovine serum (FBS) was used to culture the cell lines while being maintained in a humidified atmosphere at 37 °C, 5% CO2.
(§2) Cytotoxicity was assessed after 48 h incubation using sulforhodamine B (SRB) assay as described previously. Cells were fixed using 10% trichloroacetic acid and stained with SRB. The cytotoxicity experiments were performed in triplicate (n = 3). The 50% growth inhibition (IC50) was then assessed by using SRB assay after 48 h incubation. Data are represented as the mean ± SD of three independent experiments of each cell line.

[2] = test system: MDA-MB-468 cells; assay: SRB cytotoxicity assay, MDA-MB-468 cells; type: cell-based; conditions: Homo sapiens, 48 h incubation (Figure 3 legend: 72 h)
Protocol: as §1, §2

[3] = test system: 4T1 cells; assay: SRB cytotoxicity assay, 4T1 cells; type: cell-based, murine; conditions: Mus musculus, 48 h incubation (Figure 3 legend: 72 h)
Protocol: as §1, §2

[4] = test system: MCF7 cells; assay: SRB cytotoxicity assay, MCF7 cells; type: cell-based; conditions: Homo sapiens, 48 h incubation (Figure 3 legend: 72 h)
Protocol: as §1, §2

[5] = test system: MDA-MB-231, MDA-MB-468, 4T1, and MCF7 cells; assay: SRB cytotoxicity assay, all four breast cancer cell lines; type: cell-based; conditions: over the four breast cancer cell lines; read-out: IC50 span over all treatments
Protocol: as §1, §2

[6] = test system: 4T1 tumors; assay: In vivo antitumor effects in 4T1 tumor-bearing Balb/c mice; conditions: 3 mg/kg (TFA equivalent) IV, 9-day treatment
Protocol: Female Balb/c mice (6–12 weeks old, mean weight = 20–25 g) were supplied by the Laboratory Animal Care Facility of the Arabian Gulf University (AGU), Bahrain. […] All animal experiments were performed based on the rules and regulations of the Arabian Gulf University Animal Care Policy and approved by the Research and Ethics Committee, REC Approval No: G-E001-PI-12/16.
To propagate the tumor, female Balb/c mice (n = 3) were injected with one million 4T1 mammary carcinoma cells bilaterally (right and left side) on the flanks. The tumor was then collected and cut down into small pieces with an average size of 1–3 mm^3 in sterile PBS to sustain tumor viability. Following this, 5 mice of each group were shaved, anesthetized, and inoculated with one small piece of the 4T1 tumor tissue subcutaneously. […] The first day of drug administration was set as Day 0. Tumor volume was measured by a manual caliber, and the volume was estimated by using the formula:V (mm^3) = ((transverse section (W)^2 × longitudinal cross section (L))/2)
Tumor volumes were normalized by using the initial tumor volume and represented as the mean ± standard error of the mean (SEM). Additionally, the body weight of mice was measured every day and normalized daily for 9 days.

[7] = test system: murine bone marrow cells; parameters: method as in PMID 12110316; conditions: cited from earlier work

COc1cc2cc(C(=O)N3CC(CCl)c4c3cc(O)c3ccoc43)[nH]c2c(OC)c1OC (stereo not shown) [TFA, tafuramycin A]
IC50 [1]: 4.6 nM
IC50 [2]: 18.3 nM
IC50 [3]: 5.9 nM
IC50 [4]: 4.55 nM
IC50 [5]: 4.55 to 20.2 nM
Body weight changes [6]: not associated with any statistically significant weight loss; also recorded: no significant weight loss
Toxicity against murine bone marrow cells [7]: only mild toxicity
